Test results as given in ChEMBL document CHEMBL2176953, “Synthesis and evaluation of α-thymidine analogues as novel antimalarials” (J Med Chem, 2012).

Legend:
Thymidylate kinase = molecular target: T1, Thymidylate kinase (Plasmodium falciparum (isolate 3D7), UniProt Q8I4S1); assay: Inhibition of recombinant Plasmodium falciparum TMPK using TMP as substrate by pyruvate kinase and lactate dehydrogenase enzyme coupled assay
T1 sequence (Q8I4S1 whole entry): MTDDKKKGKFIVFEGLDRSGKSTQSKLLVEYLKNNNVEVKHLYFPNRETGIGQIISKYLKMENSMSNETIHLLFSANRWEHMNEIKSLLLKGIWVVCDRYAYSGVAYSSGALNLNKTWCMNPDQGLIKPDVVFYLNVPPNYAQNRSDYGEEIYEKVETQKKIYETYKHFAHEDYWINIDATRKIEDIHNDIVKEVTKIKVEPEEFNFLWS

MRC5 = assay: Cytotoxicity against human MRC5 cells; type: cell-based
Plasmodium falciparum = assay: Antimalarial activity against erythrocytic stages of Plasmodium falciparum 3D7 infected in human O positive RBC after 48 hrs by SYBR-green assay; type: functional, organism-based; details: 3D7, 48 h
[1] = Plasma protein binding in CD1 mouse after 5 hrs

Compound | fraction unbound at 5 h [1] | Ki (Thymidylate kinase) | CC50 (MRC5) | EC50 (Plasmodium falciparum)
Cc1cn([C@@H]2C[C@H](O)[C@@H](CNC(=O)Nc3ccc(Cl)cc3)O2)c(=O)[nH]c1=O | – | 114 µM | > 50 µM | 2.6 µM
Cc1cn([C@@H]2C[C@H](O)[C@@H](CNC(=O)Nc3ccc(N4CCCCC4)cc3)O2)c(=O)[nH]c1=O | 0.477 | – | – | 0.34 µM
Cc1cn([C@@H]2C[C@H](O)[C@@H](CNC(=O)Nc3ccc(C(C)(C)C)cc3)O2)c(=O)[nH]c1=O | – | 167 µM | > 50 µM | 2.9 µM
Cc1cn([C@@H]2C[C@H](O)[C@@H](CNC(=O)Nc3cccc(Cl)c3)O2)c(=O)[nH]c1=O | – | 106 µM | > 50 µM | 4.8 µM
Cc1cn([C@@H]2C[C@H](O)[C@@H](CNC(=O)Nc3ccc(Cl)c(C(F)(F)F)c3)O2)c(=O)[nH]c1=O | – | 88 µM | > 50 µM | 9 µM
Cc1cn([C@@H]2C[C@H](O)[C@@H](CNC(=S)Nc3ccc(Cl)c(C(F)(F)F)c3)O2)c(=O)[nH]c1=O | – | 31 µM | > 50 µM | 2.3 µM

More lines, main results first:

fraction unbound at 5 h [1] | Compound | Ki (Thymidylate kinase) | CC50 (MRC5) | EC50 (Plasmodium falciparum)
0.188 | Cc1cn([C@@H]2C[C@H](O)[C@@H](CNC(=O)Nc3ccc(OCc4ccccc4)cc3)O2)c(=O)[nH]c1=O | – | – | 0.24 µM
0.08 | Cc1cn([C@@H]2C[C@H](O)[C@@H](CNC(=O)Nc3ccc(-c4ccccc4)cc3)O2)c(=O)[nH]c1=O | – | – | 0.29 µM
0.059 | Cc1cn([C@@H]2C[C@H](O)[C@@H](CNC(=O)Nc3ccc(OCc4ccccc4Cl)cc3)O2)c(=O)[nH]c1=O | – | 29 µM | 0.028 µM
0.095 | Cc1cn([C@@H]2C[C@H](O)[C@@H](CNC(=O)Nc3ccc(Oc4ccccc4)cc3)O2)c(=O)[nH]c1=O | – | 44 µM | 0.24 µM
